Inhibition data for eleven compounds are collected here from patent US20130267494A1, “1,4-OXAZEPANE DERIVATIVES” (priority 2010, published 2013).

Where a name gives a salt, the structure may show the parent alone.

Type in all cases: cell-based
For assay [1], the target named is T1, human serotonin transporter (Homo sapiens, UniProt P31645).
T1 construct: expressed in transfected cells
Briefly: Inhibitory action on human serotonin transporter ([3H]-5-hydroxytryptamine uptake in CHO cells). Conditions: CHO, compound 1 μM; relative to inhibitory activity of 10 μM Paroxetine as 100%; read-out: inhibitory rate (%). The text has this:
(§1) Human serotonin transporter cDNA was amplified from human brain cDNA library by PCR, and inserted into pCRII-TOPO vector (manufactured by Invitrogen). The base sequence was confirmed and modified, and subcloned to pcDNA3.1 vector (manufactured by Invitrogen), whereby a human serotonin transporter expression plasmid was constructed. Human norepinephrine transporter cDNA was purchased from Invitrogen, and the base sequence was confirm and modified, and subcloned to pcDNA3.1 vector, whereby a human norepinephrine transporter expression plasmid was constructed.
(§2) The monoamine transporter expression plasmids thus prepared were introduced into CHO-K1 cells using FuGENE6 (manufactured by Roche Diagnostics) and according to the attached protocol, whereby each expressing cell was established.
CHO cells stably expressing a human serotonin transporter were used for the measurement of human serotonin transporter inhibitory activity. Unless particularly indicated, these CHO cells were cultured in a Ham/F12 medium (Invitrogen) containing 10% fetal bovine serum (MOREGATE).
The cultured cells that reached almost confluent were rinsed with PBS (Invitrogen), detached with Trypsin/EDTA (Invitrogen), and collected by a centrifugal operation. The obtained cells were counted, and diluted to 3×10^5 cells per 1 mL medium, the mixture was dispensed to a 96 well white plate (Corning) at 100 μL per well, and cultured overnight in a CO2 incubator.
(§3) Then, an assay buffer (126 mM NaCl, 4.95 mM KCl, 1.26 mM KH2PO4, 1.26 mM MgSO4, 10 mM HEPES, 2.32 mM CaCl2, 5.52 mM Glucose, 0.5% BSA) was prepared, the medium in the cell plate was removed and the assay buffer was added by 80 μL. A test compound was diluted with the assay buffer to a 10-fold concentration of the final concentration, and the mixture was dispensed to a 96 well polypropylene plate. The diluted test compound was dispensed to the cell plate by 10 μL. [3H]-5-Hydroxytryptamine (GE Healthcare) was diluted with the assay buffer to 200 nM, and the mixture was dispensed to the cell plate by 10 μL. At 20 min from [3H]-5-hydroxytryptamine addition, the assay buffer was removed by suction, and the plate was washed twice with 150 μL of PBS (Invitrogen) per well. Microscinti20 (PerkinElmer) was dispensed to each well by 100 μL, and the mixture was stirred for about 30 min. The radioactivity was measured by TopCount (PerkinElmer).
The inhibitory activity of each compound (10 μM) was calculated as a relative activity value based on the inhibitory activity of 10 μM Paroxetine (serotonin transporter inhibitor) as 100%.
In addition, the inhibitory activity of each compound (1 μM) was calculated as a relative activity value based on the inhibitory activity of 10 μM Paroxetine (serotonin transporter inhibitor) as 100%.

Assay [2] deals with T2, human dopamine transporter (Homo sapiens, UniProt Q01959).
T2 construct: expressed in transfected cells
Briefly: Inhibitory action on human dopamine transporter ([3H]-dopamine uptake in CHO cells). Conditions: CHO, compound 1 μM; relative to inhibitory activity of 100 μM Nomifensine as 100%; read-out: inhibitory rate (%).
Excerpt: SRα promoter contained in pTB1411 described in JP-A-H5-076385 was cleaved with restriction enzyme […](manufactured by TAKARA BIO INC.), blunt-ended, further cleaved with restriction enzyme EcoRI (manufactured by TAKARA BIO INC.), and fragmented. On the other hand, pCI vector was cleaved with restriction enzyme BglII (manufactured by TAKARA BIO INC.), blunt-ended with T4 DNA polymerase, and further cleaved with restriction enzyme EcoRI (manufactured by TAKARA BIO INC.). Into this site was inserted an SRa promoter fragment to give pCI-SRa. Then, pCI-SRa was cleaved with restriction enzyme ClaI (manufactured by TAKARA BIO INC.) and blunt-ended. Into this site was inserted a 1.63 Kb fragment obtained by cleaving pGFP-C1 (manufactured by TOYOBO) with restriction enzyme Bsu36I (manufactured by Daiichi Pure Chemicals Co., Ltd.) followed by blunt-ending, whereby pMSRα neo was prepared. Human dopamine transporter cDNA was amplified from human substantia nigra cDNA library by PCR, and inserted into the pCRII vector (manufactured by Invitrogen). The base sequence was confirmed, modified and subcloned to pMSRα neo, whereby a human dopamine transporter expression plasmid was constructed.
as §2
CHO cells stably expressing human dopamine transporter were used for the measurement of human dopamine transporter inhibitory activity. Unless otherwise indicated, these CHO cells were cultured in Ham/F12 medium (Invitrogen) containing 10% fetal bovine serum (MOREGATE).
One day before the assay, the cultured cells that reached almost confluent were rinsed with PBS (Invitrogen), detached with Trypsin/EDTA (Invitrogen), and collected by a centrifugal operation. The obtained cells were counted, and diluted to 3×10^5 cells per 1 mL medium, and the mixture was dispensed to a 96 well white plate (Corning) at 100 μL per well, and cultured overnight in a CO2 incubator.
as §3, with “On the day of the test, an” for “Then, an”, “μL. [3H]-Dopamine” for “μL. [3H]-5-Hydroxytryptamine”, “nM, cold dopamine was diluted to 10 μM,” for “nM,”, “At 60” for “At 20”, “from [3H]-dopamine” for “from [3H]-5-hydroxytryptamine”
The inhibitory activity of each compound (10 μM) was calculated as a relative activity value based on the inhibitory activity of 100 μM Nomifensine (dopamine transporter inhibitor) as 100%.
The inhibitory activity of each compound (1 μM) was m calculated as a relative activity value based on the inhibitory activity of 100 μM Nomifensine (dopamine transporter inhibitor) as 100%.

The target in assay [3] is T3, human norepinephrine transporter (Homo sapiens, UniProt P23975).
T3 construct: expressed in transfected cells
Briefly: Inhibitory action on human norepinephrine transporter ([3H]-norepinephrine uptake in CHO cells). Conditions: CHO, compound 1 μM; relative to inhibitory activity of 10 μM DMI as 100%; read-out: inhibitory rate (%).
Excerpt: as §1, §2
CHO cells stably expressing human norepinephrine transporter were used for the measurement of human norepinephrine transporter inhibitory activity. Unless otherwise indicated, these CHO cells were cultured in Ham/F12 medium (Invitrogen) containing 10% fetal bovine serum (MOREGATE).
The cultured cells that reached almost confluent were rinsed with PBS (Invitrogen), detached with Trypsin/EDTA (Invitrogen), and collected by a centrifugal operation. The obtained cells were counted, and diluted to 3×10^5 cells per 1 mL medium, and the mixture was dispensed to a 96 well white plate (Corning) at 100 μL per well, and cultured overnight in a CO2 incubator.
as §3, with “μL. [3H]-Norepinephrine” for “μL. [3H]-5-Hydroxytryptamine”, “At 45” for “At 20”, “from [3H]-norepinephrine” for “from [3H]-5-hydroxytryptamine”
The inhibitory activity of each compound (10 μM) was calculated as a relative activity value based on the inhibitory activity of 10 μM DMI (norepinephrine transporter inhibitor) as 100%.
The inhibitory activity of each compound (1 μM) was calculated as a relative activity value based on the inhibitory activity of 10 μM DMI (norepinephrine transporter inhibitor) as 100%.

T3 sequence (P23975 whole entry): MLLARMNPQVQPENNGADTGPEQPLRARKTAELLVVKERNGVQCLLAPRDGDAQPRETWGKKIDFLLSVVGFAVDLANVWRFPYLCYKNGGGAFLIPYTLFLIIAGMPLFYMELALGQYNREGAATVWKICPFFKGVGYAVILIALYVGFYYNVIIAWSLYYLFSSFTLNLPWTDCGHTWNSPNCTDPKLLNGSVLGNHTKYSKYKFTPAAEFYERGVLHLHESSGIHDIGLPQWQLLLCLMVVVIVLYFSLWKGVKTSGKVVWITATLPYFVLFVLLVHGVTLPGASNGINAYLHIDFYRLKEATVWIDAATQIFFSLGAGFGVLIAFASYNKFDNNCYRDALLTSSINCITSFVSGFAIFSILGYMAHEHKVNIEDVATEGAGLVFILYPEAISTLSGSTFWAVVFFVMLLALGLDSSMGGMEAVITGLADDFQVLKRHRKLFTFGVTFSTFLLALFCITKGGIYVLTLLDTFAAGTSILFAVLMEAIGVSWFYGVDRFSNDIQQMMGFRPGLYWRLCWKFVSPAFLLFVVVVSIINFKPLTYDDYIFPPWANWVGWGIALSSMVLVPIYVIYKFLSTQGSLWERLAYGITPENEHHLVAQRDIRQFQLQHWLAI
T2 sequence (Q01959 whole entry): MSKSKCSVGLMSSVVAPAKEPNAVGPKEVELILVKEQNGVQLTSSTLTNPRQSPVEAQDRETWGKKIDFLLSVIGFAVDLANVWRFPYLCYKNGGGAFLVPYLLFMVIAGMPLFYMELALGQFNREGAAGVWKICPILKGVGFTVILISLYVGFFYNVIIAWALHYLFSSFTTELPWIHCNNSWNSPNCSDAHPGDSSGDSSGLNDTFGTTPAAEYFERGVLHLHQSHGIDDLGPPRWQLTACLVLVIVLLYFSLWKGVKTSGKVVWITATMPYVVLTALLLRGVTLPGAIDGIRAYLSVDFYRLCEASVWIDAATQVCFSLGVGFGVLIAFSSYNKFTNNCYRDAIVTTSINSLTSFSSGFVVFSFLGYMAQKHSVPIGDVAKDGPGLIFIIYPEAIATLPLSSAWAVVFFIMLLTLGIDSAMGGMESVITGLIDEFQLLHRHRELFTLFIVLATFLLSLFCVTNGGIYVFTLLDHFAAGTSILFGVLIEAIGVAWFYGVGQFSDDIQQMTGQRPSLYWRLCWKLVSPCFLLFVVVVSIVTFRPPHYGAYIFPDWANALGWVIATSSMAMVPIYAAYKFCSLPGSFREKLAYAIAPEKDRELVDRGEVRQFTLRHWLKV
T1 sequence (P31645 whole entry): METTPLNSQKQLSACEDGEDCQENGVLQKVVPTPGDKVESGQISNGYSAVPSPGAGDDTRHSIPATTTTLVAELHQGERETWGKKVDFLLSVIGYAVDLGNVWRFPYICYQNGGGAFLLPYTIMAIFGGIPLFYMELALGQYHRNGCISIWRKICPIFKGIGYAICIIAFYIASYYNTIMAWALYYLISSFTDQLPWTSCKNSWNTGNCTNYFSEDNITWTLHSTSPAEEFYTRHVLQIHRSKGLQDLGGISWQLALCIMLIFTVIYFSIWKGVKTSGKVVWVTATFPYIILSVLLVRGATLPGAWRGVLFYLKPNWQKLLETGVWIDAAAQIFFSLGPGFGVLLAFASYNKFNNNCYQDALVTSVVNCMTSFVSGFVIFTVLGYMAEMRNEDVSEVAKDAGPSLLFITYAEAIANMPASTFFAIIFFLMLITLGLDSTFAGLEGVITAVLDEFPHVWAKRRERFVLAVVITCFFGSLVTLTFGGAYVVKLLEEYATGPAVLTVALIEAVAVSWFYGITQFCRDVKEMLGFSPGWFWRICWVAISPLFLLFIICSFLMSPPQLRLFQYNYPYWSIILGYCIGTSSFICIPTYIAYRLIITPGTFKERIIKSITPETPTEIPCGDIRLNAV

Regarding `CC(=O)N[C@@H]1CNCCO[C@@H]1c1ccc(Cl)c(Cl)c1` (racemic) [Example 62, N-[(6RS,7RS)-7-(3,4-dichlorophenyl)-1,4-oxazepan-6-yl]acetamide monohydrochloride], the figures for the inhibition at 1 µM in assay [1], in assay [2] and in assay [3] were 98%, 64% and 100%, respectively.
In the same order, the values of `CS(=O)(=O)N[C@@H]1CNCCO[C@@H]1c1ccc(Cl)c(Cl)c1` (racemic) [Example 63, N-[(6RS,7RS)-7-(3,4-dichlorophenyl)-1,4-oxazepan-6-yl]methanesulfonamide monohydrochloride] are 93%, 82% and 100%.
The like results for `CS(=O)(=O)NC[C@@]1(O)CNCCO[C@@H]1c1ccc(Cl)c(Cl)c1` (racemic) [Example 162, N-{[(6RS,7SR)-7-(3,4-dichlorophenyl)-6-hydroxy-1,4-oxazepan-6-yl]methyl}methanesulfonamide monohydrochloride] were, in that order, 65%, 40% and 105%.
For the compound `O[C@H]1CNCCO[C@@H]1c1ccc(Cl)c(Cl)c1` (racemic) [Example 230, (6RS,7SR)-7-(3,4-dichlorophenyl)-1,4-oxazepan-6-ol monohydrochloride], the inhibition at 1 µM in assay [1] turned out to be 59%; in assay [2], 25%; in assay [3], 100%.
The like results for `O=c1[nH]c(-c2cccnc2O[C@H]2CNCCOC2c2ccc(Cl)c(Cl)c2)no1` (mixture of isomers) [Example 236, 3-(2-{[(6RS,7SR)-7-(3,4-dichlorophenyl)-1,4-oxazepan-yl]oxy}pyridin-3-yl)-1,2,4-oxadiazol-5(4H)-one monohydrochloride] were, in that order, 92%, 93% and 105%.
Consider `OC[C@@H]1CNCCO[C@@H]1c1ccc(F)c(Cl)c1` (racemic) [Example 278, [(6RS,7RS)-7-(3-chloro-4-fluorophenyl)-1,4-oxazepan-6-yl]methanol monohydrochloride], for which the inhibition at 1 µM came out at 87% in assay [1], 13% in assay [2] and 91% in assay [3].
Turning to `CS(=O)(=O)C[C@@H]1CNCCOC1c1ccc(F)c(Cl)c1` (mixture of isomers) [Example 281, (6RS,7SR)-7-(3-chloro-4-fluorophenyl)-6-[(methylsulfonyl)methyl]-1,4-oxazepane monohydrochloride], the inhibition at 1 µM in assay [1] was determined as 95%; in assay [2] it was 22%; in assay [3], 95%.
`CS(=O)(=O)NC[C@H]1CNCCO[C@@H]1c1ccc(F)c(Cl)c1` (racemic) [Example 293, N-{[(6RS,7SR)-7-(3-chloro-4-fluorophenyl)-1,4-oxazepan-6-yl]methyl}methanesulfonamide monohydrochloride]: the inhibition at 1 µM was 65% in assay [1], 31% in assay [2] and 95% in assay [3].
In the same order, the values of `OC[C@H]1CNCCO[C@@H]1c1cc2ccccc2s1` (racemic) [Example 410, [(6RS,7SR)-7-(1-benzothiophen-2-yl)-1,4-oxazepan-6-yl]methanol monohydrochloride] are 91%, 32% and 103%.
In the case of `CCOC(=O)[C@H]1NCCOC[C@@H]1c1ccc(Cl)c(Cl)c1` (racemic) [Example 412, ethyl (5RS,6SR)-6-(3,4-dichlorophenyl)-1,4-oxazepane-5-carboxylate monohydrochloride], the figures for the inhibition at 1 µM in assay [1], in assay [2] and in assay [3] were 8%, 83% and 86%, respectively.
With `COC[C@@H]1OCCNC[C@@H]1c1ccc(Cl)c(Cl)c1` (racemic) [Example 449, (6RS,7SR)-6-(3,4-dichlorophenyl)-7-(methoxymethyl)-1,4-oxazepane monohydrochloride], the values for the inhibition at 1 µM in assay [1], in assay [2] and in assay [3] were 53%, 58% and 100%, respectively.
